# Assays:
# [1] = system: HT-29 cells; assay: Cell survival assay (antiproliferative IC50); format: cell-based, human; settings: Homo sapiens
# Method: Human colon carcinoma COLO205 and HT-29 cell lines (American Type Culture Collection (ATTC), Manassas, Va.) and the leukemia cell line HL-60 were maintained at 37° C. in 5% CO2 air in RPMI 1640 medium supplemented with 10% heat-inactivated fetal bovine serum (Gibco BRL, Grand Island, N.Y.), 100 units/mL penicillin, 100 μg/mL streptomycin and 2 mM 1-glutamine. The human gastric carcinoma AGS cell line (CCRC 60102), obtained from the Food Industry Research and Development Institute (Hsinchu, Taiwan), was maintained as described above, except that DMEM/F 12 was used as the medium rather than the RPMI 1640 medium. The human breast carcinoma MCF-7 cell line MCF-7 (ATTC) was cultured in RPMI 1640 medium supplemented with 5% fetal calf serum at 37° C. in a humidified atmosphere of 5% CO2 in air. The mouse macrophage cell line RAW 264.7 was maintained in RPMI 1640 supplemented with 100 U/ml penicillin, 100 μg/ml streptomycin, and 10% heat-inactivated fetal calf serum.
# Cancer cells (2×10^5) were plated in 12-well Petri dishes. The next day, the medium was changed and treated with different concentration of the test compounds or compositions for 24 h. Where individual compounds were to be tested, stock solutions of the compound was prepared to contain 200 μM of the individual hydroxylated or non-hydroxylated PMF in dimethylsulfoxide (DMSO). Control cells were treated with DMSO to a final concentration of 0.05% (v/v). Depending on the objective of the particular experiment, cells were treating with test compound or composition for 1, 3 or 6 days. At the end of incubation, cells were harvested for cell count using a hemocytometer and measuring the cellular total nucleic acid content with the CyQUANT Cell Proliferation Assay Kit (Molecular Probes).
# The PMF compounds were assayed in vitro for cell growth inhibition and for their ability to induce apoptosis in various human cancer cells, including HL-60, AGS, COLO 205, and HT-29 cells, using methods described in Section 8.4 above. Antiproliferative (IC50) and apoptosis-inducing activity (AC50) of PMFs in the HL-60, AGS, COLO 205, and HT-29 cells are reported in Table 9, where *P<0.05, **P<0.01 and ***P<0.001 indicate statistically significant differences from the control group.
# [2] = system: HL-60 cells; assay: Cell cycle distribution by flow cytometry; format: cell-based, human; settings: 24 h; for Cell Cycle Distribution G0/G1 / Cell Cycle Distribution G2/M / Cell Cycle Distribution S: Table 10
# Method: (§1) The human cancer cells (2×10^5) were cultured in 60-mm Petri dishes and incubated for 24 h. After treated with test compounds for 24 h, the cells were then harvested, washed with PBS resuspended in 200 μL of PBS, and fixed in 800 μL of iced 100% ethanol at −20° C. After being left to stand overnight, the cell pellets were collected by centrifugation, resuspended in 1 mL of hypotonic buffer (0.5% Triton X-100 in PBS and 0.5 μg/mL RNase) and incubated at 37° C. for 30 min. Next, 1 mL of propidium iodide solution (50 μg/mL) was added, and the mixture was allowed to stand on ice for 30 min. Fluorescence emitted from the propidium iodide-DNA complex was quantitated after excitation of the fluorescent dye by FACScan cytometry (Becton Dickinson, San Jose, Calif.).
# The effects of the hydrolyzed PMF-enriched compositions, nobiletin and 70% PMF OPE on cell cycle distribution were studied, following the procedures described in Section 8.4. Results for cell cycle distribution in HL-60 cells, COLO205 cells and AGS cells are provided in Table 5, Table 6 and Table 7, respectively. […] In HL-60 cells, G2/M arrest predominated in cells treated with 6N PMF concentrations ≧5 μM and with 1N PMF concentrations ≧25 μM.
# (§2) Compounds A-K were evaluated in terms of their effects in arresting cell cycle progression by observing cell cycle phase distribution in cells treated with the compounds. Cells were treated with 5, 10, 25, 50, and 100 μM of one of compound A-K or DMSO (control) for 24 h and subjected to flow cytometric analysis after staining their DNA, as described above.
# [3] = system: LPS-induced nitrite production in RAW 264.7 macrophages; assay: Nitrite assay (Griess reaction); format: cell-based, mouse; settings: 100 ng/ml LPS, PMF 30 μM, 24 h, FIG. 3
# Method: Compounds or compositions were tested for anti-inflammatory effects by monitoring nitrite production in LPS-activated RAW264.7 cells. After treating the cells with LPS or LPS and test substance, supernatants were harvested and the amount of nitrite, an indicator of NO synthesis, was measured by use of the Griess reaction. Briefly, supernatants (100 μl) were mixed with the same volume of Griess reagent (1% sulphanilamide in 5% phosphoric acid and 0.1% naphthylethylenediamine dihydrochloride in water) in duplicate on 96-well plates. After incubation at room temperature for 10 min, absorbance at 570 nm was measured with a ELISA reader (Thermo Labsystems Multiskan Ascent, Finland).
# The anti-inflammatory effects of compounds A-K were tested by measuring nitrite production in LPS-activated RAW 264.7 macrophages, as described in Section 8.4 above. Macrophages were treated with 100 ng/ml LPS alone or LPS and PMF (10 or 30 μM) for 24 h. At the end of incubation time, 100 μl of the culture medium was collected for the nitrite assay.
# [4] = system: HT-29 cells; assay: Cell cycle distribution by flow cytometry; format: cell-based, human; settings: for Cell Cycle Distribution G0/G1 / Cell Cycle Distribution G2/M / Cell Cycle Distribution S: 24 h; for Cell cycle arrest, in words: 5-100 μM, 24 h exposure
# Method: as §1, §2
# Similar cell cycle phase distribution studies were performed in AGS, COLO205, and HT-29 cells in response to individual PMFs, with results reported in Tables 11, 12 and 13, respectively.
Structure (SMILES),IC50 [1] [µM],Cell Cycle Distribution G0/G1 ([2]; 5 μM),Cell Cycle Distribution G2/M ([2]; 5 μM),Cell Cycle Distribution S ([2]; 5 μM),Cell Cycle Distribution G0/G1 ([2]; 10 μM),Cell Cycle Distribution G2/M ([2]; 10 μM),Cell Cycle Distribution S ([2]; 10 μM),Cell Cycle Distribution G0/G1 ([2]; 25 μM),Cell Cycle Distribution G2/M ([2]; 25 μM),Cell Cycle Distribution S ([2]; 25 μM),Cell Cycle Distribution G0/G1 ([2]; 50 μM),Cell Cycle Distribution G2/M ([2]; 50 μM),Cell Cycle Distribution S ([2]; 50 μM),Cell Cycle Distribution G0/G1 ([2]; 100 μM),Cell Cycle Distribution G2/M ([2]; 100 μM),Cell Cycle Distribution S ([2]; 100 μM),Rank of inhibitory potency on LPS-induced nitrite production [3],Cell Cycle Distribution G0/G1 ([4]; 5 μM),Cell Cycle Distribution G2/M ([4]; 5 μM),Cell Cycle Distribution S ([4]; 5 μM),other results
"COc1ccc(-c2oc3c(OC)c(OC)c(OC)c(O)c3c(=O)c2OC)cc1OC [Compound C, 5-hydroxy-3,6,7,8,3′,4′-hexamethoxyflavone]",77.4 ± 1.82,70.99 ± 0.49,0.95 ± 0.35,28.07 ± 0.99,78.47 ± 0.64,19.89 ± 1.06,1.64 ± 0.42,40.12 ± 0.64,20.37 ± 0.57,39.51 ± 0.57,51.42 ± 1.13,11.64 ± 1.06,36.94 ± 0.85,50.23 ± 1.91,18.74 ± 1.56,31.03 ± 1.06,H>G>K>C>I>B,65.24 ± 0.32,7.62 ± 0.11,27.15 ± 0.21,"Cell cycle arrest, in words ([2]; 25 μM): decrease in G1 arrest was accompanied by an increase in G2/M phase cell population; Cell cycle arrest, in words ([2]; 25-100 μM): significant G1 arrest; Cell Cycle Distribution G0/G1 ([4]; 10 μM): 69.14 ± 0.14; Cell Cycle Distribution G2/M ([4]; 10 μM): 6.58 ± 0.18; Cell Cycle Distribution S ([4]; 10 μM): 24.28 ± 0.32; Cell Cycle Distribution G0/G1 ([4]; 25 μM): 80.09 ± 0.19; Cell Cycle Distribution G2/M ([4]; 25 μM): 4.39 ± 0.37; Cell Cycle Distribution S ([4]; 25 μM): 15.54 ± 0.19; Cell Cycle Distribution G0/G1 ([4]; 50 μM): 69.85 ± 0.66; Cell Cycle Distribution G2/M ([4]; 50 μM): 5.91 ± 0.49; Cell Cycle Distribution S ([4]; 50 μM): 24.25 ± 1.15; Cell Cycle Distribution G0/G1 ([4]; 100 μM): 77.48 ± 0.74; Cell Cycle Distribution G2/M ([4]; 100 μM): 3.94 ± 1.32; Cell Cycle Distribution S ([4]; 100 μM): 18.59 ± 0.58; Cell cycle arrest, in words [4]: significant accumulation of cells in G1 phase"
"COc1cc(-c2cc(=O)c3c(OC)c(OC)c(OC)c(OC)c3o2)ccc1O [Compound G, 4′-hydroxy-5,6,7,8,3′-pentamethoxyflavone]",45.8,41.79 ± 0.80,4.80 ± 6.73,53.41 ± 5.93,43.26 ± 2.02,12.61 ± 0.11,44.15 ± 2.12,55.71 ± 0.15,8.39 ± 0.16,35.90 ± 0.01,52.35 ± 1.09,12.18 ± 3.83,35.48 ± 4.91,65.44 ± 5.42,11.21 ± 8.27,23.35 ± 13.67,H>G>K>C>I>B,56.92 ± 1.98,12.42 ± 0.44,30.66 ± 2.43,"Cell Cycle Distribution G0/G1 ([4]; 10 μM): 58.01 ± 1.22; Cell Cycle Distribution G2/M ([4]; 10 μM): 9.97 ± 2.10; Cell Cycle Distribution S ([4]; 10 μM): 32.03 ± 0.88; Cell Cycle Distribution G0/G1 ([4]; 25 μM): 74.38 ± 1.68; Cell Cycle Distribution G2/M ([4]; 25 μM): 6.18 ± 0.06; Cell Cycle Distribution S ([4]; 25 μM): 19.55 ± 1.59; Cell Cycle Distribution G0/G1 ([4]; 50 μM): 84.63 ± 1.16; Cell Cycle Distribution G2/M ([4]; 50 μM): 7.99 ± 0.01; Cell Cycle Distribution S ([4]; 50 μM): 7.39 ± 1.16; Cell Cycle Distribution G0/G1 ([4]; 100 μM): 75.28 ± 1.61; Cell Cycle Distribution G2/M ([4]; 100 μM): 14.63 ± 0.21; Cell Cycle Distribution S ([4]; 100 μM): 10.11 ± 1.82; Cell cycle arrest, in words [4]: significant accumulation of cells in G1 phase"

# — patent publication US20140039044A1, “Hydroxylated Polymethoxyflavone Compositions” (WLLGEN, INC., priority 2006, published 2014)
